In article PMC12689286, “Enhanced therapeutics of cabazitaxel via polycarboxylate conjugation: improved solubility, safety, and antitumor efficacy” (Frontiers in Immunology, 2025):

Columns and labels:
[1] = Tissue distribution; conditions: CTX metabolite after CTX-DTPA 6 μmol/kg iv, SD rats
Experimental: (§1) Male and female SD rats (200–220 g) received intravenous injections of CTX or CTX-DTPA (6 μmol/kg). CTX was dissolved in 2.5% Tween 80/2.5% EtOH/saline, while CTX-DTPA used saline alone. Blood samples were collected at 5 min to 24 h post-dose. Tissues (heart, liver, spleen, lung, kidney, thymus) and excreta were collected at 15 min, 2 h, 4 h, and 12 h. Plasma and tissue samples were processed by liquid-liquid extraction with n-butanol and analyzed via LC-MS/MS (Agilent Poroshell 120 EC-C18 column; 0.05% formic acid/acetonitrile gradient). Pharmacokinetic parameters were calculated using DAS 2.0 via non-compartmental analysis.

[2] = Plasma pharmacokinetics (non-compartmental); conditions: SD rats
Experimental: as §1

[3] = system: DU145; experiment: MTS cytotoxicity, DU145; assay type: cell-based; conditions: Homo sapiens, DU-145
Experimental: (§2) Human cancer cell lines were cultured in basic medium (10% fetal bovine serum (FBS)+1% double antibody solution) (Biological Industries) at 37°C in a 5% CO2 incubator. Effects of CTXs on cell proliferation and viability were measured by an MTS (Promega Corporation) assay. Absorbance values at 490 nm were measured using a microplate reader (Thermo Scientific, Varioskan Flash) ([22]).

[4] = system: DU145 prostate cancer model; experiment: DU145 prostate cancer xenograft, tumor volume; assay type: in vivo, BALB/c nude mice; conditions: 3 μmol/kg tail vein, three times at 3-day intervals, control 500 ± 45 mm³
Experimental: (§3) All animal experiments were conducted in accordance with protocols approved by the Institutional Animal Care and Use Committee of Peking Union Medical College. Male BALB/c nude mice (6–8 weeks old) and female KM mice (6–8 weeks old) were purchased from Charles River Laboratories (Beijing, China) and maintained under specific pathogen-free conditions.
DU145 Prostate cancer model: DU145 cells (3×10^6 cells/mouse) were subcutaneously inoculated into the right flank of BALB/c nude mic. When tumors reached approximately 100 mm³, mice were randomly divided into four treatment groups (n=6/group): (a) Vehicle control; (b) CTX (3 μmol/kg); (c) CTX-TTHA (3 μmol/kg); (d) CTX-DTPA (3 μmol/kg). Treatments were administered via tail vein injection three times at 3-day intervals. Major organs were collected for histopathological examination after the final administration.

[5] = system: HCT 116; experiment: MTS cytotoxicity, HCT 116; assay type: cell-based; conditions: Homo sapiens; HCT 116, MTS
Experimental: as §2

[6] = system: H520; experiment: MTS cytotoxicity, H520; assay type: cell-based; conditions: Homo sapiens, NCI-H520
Experimental: as §2

[7] = system: SK-OV-3; experiment: MTS cytotoxicity, SK-OV-3; assay type: cell-based; conditions: Homo sapiens; SK-OV-3, MTS
Experimental: as §2

[8] = system: Bel-7402; experiment: MTS cytotoxicity, Bel-7402; assay type: cell-based; conditions: Homo sapiens; Bel-7402, MTS
Experimental: as §2

[9] = system: Fadu; experiment: MTS cytotoxicity, Fadu; assay type: cell-based; conditions: Homo sapiens
Experimental: as §2

[10] = system: L-02; experiment: MTS cytotoxicity, L-02 (non-tumor); assay type: cell-based; conditions: Homo sapiens, L02, L-02 non-tumor cell line
Experimental: as §2

[11] = system: H460; experiment: MTS cytotoxicity, H460; assay type: cell-based; conditions: Homo sapiens, NCI-H460
Experimental: as §2

[12] = system: LN229; experiment: MTS cytotoxicity, LN229; assay type: cell-based; conditions: Homo sapiens, LN-229
Experimental: as §2

[13] = system: DU145 cells; experiment: Cell cycle arrest (PI, flow cytometry); assay type: cell-based, human; conditions: 24 h
Experimental: Cells were incubated with drugs for 24 h. Fixed cells were incubated with RNase A and stained with propidium iodide (PI). DNA content was determined in a flow cytometer (BD FACS CaliburTM Flow Cytometer, USA) ([23]).

[14] = system: PC-3; experiment: MTS cytotoxicity, PC-3; assay type: cell-based; conditions: Homo sapiens; PC-3, MTS
Experimental: as §2

[15] = system: A549; experiment: MTS cytotoxicity, A549; assay type: cell-based; conditions: Homo sapiens
Experimental: as §2

[16] = system: H358; experiment: MTS cytotoxicity, H358; assay type: cell-based; conditions: Homo sapiens, NCI-H358
Experimental: as §2

[17] = Systemic toxicity in H22 tumor-bearing mice (body weight, blood count); assay type: in vivo, KM mice; conditions: H22 mice, throughout treatment, across all dose groups (9.6 and 19.1 μmol/kg)
Experimental: H22 hepatoma model: Female KM mice were subcutaneously implanted with H22 cells (2×10^6 cells/mouse) and assigned to six groups: (a) Vehicle control; (b) CTX (9.6 μmol/kg in 5% glucose with 2.5% ethanol/2.5% Tween 80); (c) CTX-TTHA (9.6 μmol/kg in saline); (d) CTX-DTPA (9.6 μmol/kg in saline); (e) CTX-TTHA (19.1 μmol/kg in saline); (f) CTX-DTPA (19.1 μmol/kg in saline).
Treatments were administered every other day for four doses (three doses for CTX group due to weight loss >15%). Peripheral blood samples were collected for complete blood count analysis using an automated hematology analyzer.

[18] = system: 3T3; experiment: MTS cytotoxicity, 3T3 (non-tumor); assay type: cell-based; conditions: Mus musculus, NIH3T3, 3T3 non-tumor cell line
[19] = system: MCF-7 xenografts; experiment: MCF-7 breast cancer xenograft, tumor volume; assay type: in vivo, BALB/c nude mice; conditions: MCF-7 xenograft, 9.6 μmol/kg
Experimental: as §3
MCF-7 Breast Cancer Model: Female BALB/c nude mice bearing MCF-7 xenografts (2×10^6 cells/mouse) were randomized into treatment groups as described above, with an adjusted dose of 9.6 μmol/kg for all CTX formulations.

[20] = system: rat red blood cells (RBCs); experiment: Hemolysis test; assay type: cell-based, SD rats; conditions: vs unmodified CTX
Experimental: (§4) The hemolytic potential of CTX formulations was evaluated using rat red blood cells (RBCs). Briefly, whole blood was collected from the abdominal aorta of anesthetized SD rats into ACD anticoagulant (blood:ACD = 1:4, v/v). The blood was diluted with normal saline (4:5, v/v) and centrifuged at 450 g for 10 min. The RBC pellet was washed three times with normal saline until the supernatant was clear. The washed RBCs were then resuspended in normal saline to prepare a 2% (v/v) suspension.
(§5) For the assay, 500 μL of the 2% RBC suspension was mixed with an equal volume of serially diluted drugs or controls in 1.5 mL tubes. The controls included: Negative control (0% hemolysis): normal saline. Positive control (100% hemolysis): distilled water. Solvent control: the vehicle for unmodified CTX (2.5% Tween 80 + 2.5% anhydrous ethanol + 95% normal saline). The mixtures were incubated at 37 °C for 1.5 h and then centrifuged at 450 g for 5 min. Subsequently, 150 μL of the supernatant from each tube was transferred to a 96-well plate, and the absorbance at 545 nm (OD545) was measured using a microplate reader. The percentage of hemolysis was calculated using the following formula: Hemolysis (%) = [(ODsample - ODnegative control)/(ODpositive control - ODnegative control)] × 100.

[21] = Hemolysis test; assay type: cell-based, SD rats; conditions: SD, rat, rat red blood cells, 2% (v/v) suspension, 37 °C, 1.5 h
Experimental: as §4, §5

[22] = system: MCF-7; experiment: MTS cytotoxicity, MCF-7; assay type: cell-based; conditions: Homo sapiens, MCF7; MCF-7, MTS
Experimental: as §2

[23] = Lipid-aqueous (octanol/water) partition coefficient; assay type: physicochemical; conditions: room temperature
Experimental: CTXs were dissolved in octanol, and an equal volume of water was added, followed by shaken at 100 rpm for 24 h at room temperature. The upper octanol phase and lower water phase were separated by centrifugation. The supernatant was analyzed by HPLC (Bruker SolanX 70 FT-MS; Agilent 6540TOF) ([21]).

[24] = system: HT-29; experiment: MTS cytotoxicity, HT-29; assay type: cell-based; conditions: Homo sapiens; HT-29, MTS
Experimental: as §2

[25] = CTX-DTPA 6 μmol/kg iv, plasma, CTX metabolite derived from CTX-DTPA

CO[C@H]1C(=O)[C@]2(C)[C@@H](OC)C[C@H]3OC[C@@]3(OC(C)=O)[C@H]2[C@H](OC(=O)c2ccccc2)[C@]2(O)C[C@H](OC(=O)[C@H](O)[C@@H](NC(=O)OC(C)(C)C)c3ccccc3)C(C)=C1C2(C)C [CTX/CTX-DTPA]
tissue concentration ([1]; heart, 15 min): * 2.38 ± 0.46 μg/kg
tissue concentration ([1]; heart, 2 h): *** 2.27 ± 0.70 μg/kg
tissue concentration ([1]; heart, 4 h): *** 1.26 ± 0.20 μg/kg
tissue concentration ([1]; heart, 12 h): ** 0.41 ± 0.29 μg/kg
tissue concentration ([1]; kidney, 15 min): **** 53.38 ± 7.21 μg/kg
tissue concentration ([1]; kidney, 2 h): ** 63.87 ± 43.92 μg/kg
tissue concentration ([1]; kidney, 4 h): *** 8.74 ± 0.10 μg/kg
tissue concentration ([1]; kidney, 12 h): **** 3.14 ± 1.66 μg/kg
tissue concentration ([1]; liver, 15 min): *** 17.88 ± 1.12 μg/kg
tissue concentration ([1]; liver, 2 h): ** 10.31 ± 7.28 μg/kg
tissue concentration ([1]; liver, 4 h): ** 4.62 ± 3.48 μg/kg
tissue concentration ([1]; liver, 12 h): * 1.91 ± 1.12 μg/kg
tissue concentration ([1]; lung, 15 min): *** 12.95 ± 5.49 μg/kg
tissue concentration ([1]; lung, 2 h): **** 9.66 ± 5.84 μg/kg
tissue concentration ([1]; lung, 4 h): **** 2.44 ± 0.01 μg/kg
tissue concentration ([1]; lung, 12 h): * 1.78 ± 0.82 μg/kg
tissue concentration ([1]; spleen, 15 min): ** 5.49 ± 0.53 μg/kg
tissue concentration ([1]; spleen, 2 h): **** 8.23 ± 4.20 μg/kg
tissue concentration ([1]; spleen, 4 h): ** 2.61 ± 0.42 μg/kg
tissue concentration ([1]; spleen, 12 h): ** 1.43 ± 0.96 μg/kg
tissue concentration ([1]; thymus, 15 min): ** 1.49 ± 0.02 μg/kg
tissue concentration ([1]; thymus, 2 h): * 4.37 ± 5.02 μg/kg
tissue concentration ([1]; thymus, 4 h): * 0.79 ± 0.28 μg/kg
tissue concentration ([1]; thymus, 12 h): **** 0.80 ± 0.42 μg/kg
Cmax relative to CTX ([2]; 6 μmol/kg iv, CTX metabolite from CTX-DTPA vs CTX group, greater): 2.2 fold
AUC(0-t) [2, 25]: **** 5157.71 ± 1650.87 μg/L*h
CL [2, 25]: 25.2 ± 6.83 mL/min/kg
Cmax [2, 25]: * 6311.67 ± 1217.79 μg/L
MRT0-t [2, 25]: 0.72 ± 0.02 H
Vd [2, 25]: * 6.04 ± 1.63 L/kg
t1/2 [2, 25]: **** 2.77 ± 0.00 H

COC1C(=O)C2(C)C(OC)CC3OCC3(OC(C)=O)C2C(OC(=O)c2ccccc2)C2(O)CC(OC(=O)C(OC(=O)CN(CCN(CCN(CCN(CC(=O)O)CC(=O)O)CC(=O)O)CC(=O)O)CC(=O)O)C(NC(=O)OC(C)(C)C)c3ccccc3)C(C)=C1C2(C)C (stereo not shown) [CTX-TTHA]
IC50 [3]: 4.1 ± 2.2 nM
final tumor volume [4]: 270 ± 28 mm³
IC50 [5]: 2.1 ± 0.9 nM
IC50 [6]: 2.1 ± 0.6 nM
IC50 [7]: 3.2 ± 0.8 nM
IC50 [8]: 2.4 ± 0.4 nM
IC50 [9]: 2.3 ± 0.9 nM
IC50 [10]: 6.8 ± 0.4 nM
IC50 [11]: 1.9 ± 0.7 nM
IC50 [12]: 7.6 ± 3.1 nM
cells arrested in G2/M ([13]; DU145, 1 nM): 15.1 ± 0.1%
cells arrested in G2/M ([13]; DU145, 25 nM): 69.9 ± 12.6%
IC50 [14]: 7.4 ± 2.8 nM
IC50 [15]: 3.3 ± 1.6 nM
IC50 [16]: 1.6 ± 0.4 nM
WBC counts [17]: 3.50-5.60 ×10^9/L
IC50 [18]: 8 ± 3.3 nM
tumor volume at study endpoint [19]: 190 ± 22 mm³
improvement in hemocompatibility over unmodified CTX [20]: 64 fold
hemolysis at 1.5 h, 300 nmol/mL ([21]; 300 nmol/mL (maximum tested), read-out: hemolysis rate): 28.3 ± 13.9%
hemolysis at 1.5 h ([21]; concentrations up to 150 nmol/mL): < 2%
IC50 [22]: 5.5 ± 2.3 nM
logP at 24 h [23]: -1.37 ± 0.38
IC50 [24]: 8.4 ± 3.8 nM
